Measured values reported in ChEMBL document CHEMBL3044950, “Insecticidal activity of Paraherquamides, including paraherquamide H and paraherquamide I, two new alkaloids isolated from Penicillium cluniae” (2006).

Tested on: Oncopeltus fasciatus
Test: Insecticidal activity against Oncopeltus fasciatus fourth-instar nymphs assessed as induction of insect mortality after compound topical application measured 72 hr post compound application
Type: functional

Molecule `CN1C(=O)[C@]23C[C@@H]4C(C)(C)[C@@]5(C[C@@]41CN2CC[C@@]3(C)O)C(=O)Nc1c5ccc2c1OC=CC(C)(C)O2` [Paraherquamide A] has an LD50 of 0.32 µg.

For `CN1C(=O)[C@@]23CCCN2C[C@@]12C[C@@]1(C(=O)Nc4c1ccc1c4OC=CC(C)(C)O1)C(C)(C)[C@@H]2C3` [PARAHERQUAMIDE B], the LD50 was 16.54 µg.

With `C[C@H]1CCN2C[C@]34C[C@@]5(C(=O)Nc6c5ccc5c6OC=CC(C)(C)O5)C(C)(C)[C@@H]3C[C@]12C(=O)N4C` [PARAHERQUAMIDE E] the LD50 was 0.089 µg.

Work on `CN1C(=O)[C@]23C[C@H]4C(C)(C)[C@@]5(C[C@@]41C[N+]2([O-])CC[C@@]3(C)O)C(=O)Nc1c5ccc2c1OC=CC(C)(C)O2` (stereo not given in full) [N-OXIDE PARAHERQUAMIDE] yielded an LD50 of 7.01 µg.

In the case of `CN1C(=O)[C@]23C[C@H]4C(C)(C)[C@@]5(C[C@@]41CN2C(=O)C[C@@]3(C)O)C(=O)Nc1c5ccc2c1OC=CC(C)(C)O2`, the LD50 is reported as 0.91 µg.
